Assay results reported in patent US10441562B2, “Aromatic farnesyl compound and application thereof” (INSTITUTE OF MICROBIOLOGY, CHINESE ACADEMY OF SCIENCES, priority 2015, dated 2019).
Marks after values point to notes of the source that are not given here.

Columns and labels:
aldose reductase = aldose reductase (Homo sapiens, UniProt P15121); assay: aldose reductase inhibitory activity test in vitro; assay type: biochemical
In short: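 Absorbance assay with 0.1 mM NADPH solution and enzyme preincubated with compound 10 min at room temperature, then 10 mM D,L-glyceraldehyde solution added as substrate. Incubation 30 min at 37 °C in PBS. Read-out is optical density at 340 nm, corrected with blank (no compound) and background (no substrate) wells.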

dipeptidyl peptidase-4 = biological target: T1, dipeptidyl peptidase-4 (Homo sapiens, UniProt P27487); assay: dipeptidyl peptidase-4 inhibitory activity test in vitro (DPP-4 inhibitor screening kit); assay type: biochemical
T1 construct: purchased
T1 sequence (P27487 whole entry, species assumed): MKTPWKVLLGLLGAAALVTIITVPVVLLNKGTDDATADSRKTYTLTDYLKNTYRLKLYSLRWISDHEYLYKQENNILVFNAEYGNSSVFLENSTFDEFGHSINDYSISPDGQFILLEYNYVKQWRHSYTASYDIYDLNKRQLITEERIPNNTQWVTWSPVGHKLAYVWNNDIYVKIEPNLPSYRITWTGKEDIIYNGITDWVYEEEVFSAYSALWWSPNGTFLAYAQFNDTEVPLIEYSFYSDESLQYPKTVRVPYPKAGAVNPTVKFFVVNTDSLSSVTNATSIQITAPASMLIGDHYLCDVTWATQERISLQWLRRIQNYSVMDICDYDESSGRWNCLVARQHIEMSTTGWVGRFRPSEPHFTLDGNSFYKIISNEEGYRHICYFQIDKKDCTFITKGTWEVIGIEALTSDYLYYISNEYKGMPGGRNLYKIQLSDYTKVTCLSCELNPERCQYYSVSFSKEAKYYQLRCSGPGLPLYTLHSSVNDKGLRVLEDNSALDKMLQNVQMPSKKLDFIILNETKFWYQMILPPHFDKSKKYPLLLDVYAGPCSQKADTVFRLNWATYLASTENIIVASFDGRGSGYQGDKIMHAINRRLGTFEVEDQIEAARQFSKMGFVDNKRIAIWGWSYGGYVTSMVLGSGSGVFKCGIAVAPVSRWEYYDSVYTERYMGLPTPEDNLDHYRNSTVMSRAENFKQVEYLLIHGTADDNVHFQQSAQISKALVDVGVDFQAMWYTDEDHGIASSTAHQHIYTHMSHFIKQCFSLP
Description: The above compounds are detected by DPP-4 inhibitor screening kit.

[1] = tested on: rats fed with high fat diet; assay: blood lipid of rats fed with high fat diet; assay type: in vivo, SD rats; conditions: 50 mg/kg intragastric, 10 days, serum
Description: Serum total cholesterol kit (batch number 20131112), low density lipoprotein LDL-C kit (batch number 20140114), high density lipoprotein HDL-C kit (batch number 20140413), triglyceride TG kit (batch number 20131226), superoxide dismutase SOD kit (batch number 20140213) and glutamic-pyruvic transaminase ALT kit (batch number 20131006) are purchased from Nanjing Jiancheng Bioengineering Institute.
Methods: after being acclimatized for 1 week, the 200±20 g healthy male SD rats are randomly divided into 4 groups of 8 animals in each. The control group is fed with normal diet, while the other groups are fed with high-fat diet, which is normal diet with 1% cholesterol, 0.2% pig bile sal, 10% lard and 10% egg yolk powder. After being fed for 3 weeks, 10 mg/ml extract solution of 1 ml (which corresponds to 50 mg/kg) is given to different groups of rats by intragastric administration for 10 days successively, and the control group and model group are given with equal amounts of saline. After the last administration, blood is taken to be centrifuged at 3000 rpm in 4[…], and then detect serum total cholesterol, low density lipoprotein and triglyceride TG

normal mice = assay: blood sugar of normal mice; assay type: in vivo, Kunming species mice; conditions: 50 mg/kg intragastric, 10 days, fasted 10 hours
Procedure: Blood glucose determination kit (batch number 20140403) is purchased from Nanjing Jiancheng Bioengineering Institute.
Methods: after being acclimatized for 1 week, the 20±2 g Kunming species mice are randomly divided into 3 groups of 12 animals in each. 10 mg/ml extract solution of 0.1 ml (which corresponds to 50 mg/kg) is given to different groups of mice by intragastric administration for 10 days successively, and the control group is given with equal amounts of saline. After the last administration, the mice are fasted for 10 hours and blood is collected from orbit, then detect the blood sugar by blood glucose determination kit.

[2] = tested on: hyperglycemia KK-A^y mice; assay: blood lipid and liver function of hyperglycemia KK-A^y mice; assay type: in vivo; conditions: 3 weeks
Procedure: Materials: accurately weigh the 2 compounds S13 and S28 discussed in example 2, and then add 0.5% CMC-Na to make the solution of 5 mg/ml used for activity test. KK-A^y mice are purchased from Chinese Academy of Medical Sciences & Peking Union Medical College Institute of Animal Studies. Experiments are carried out after adapting to the environment (T=20-24° C., constant humidity: 50-60%, 12 hours light exposure (8:00-20:00), soundproof, free feeding and drinking) for 1 week. Glucometer is purchased from Roche.
Methods: 10 male C57 mice of 6-8 weeks of 20-22 g are used as normal control group (1). Detect the fasting glucose of male KK-A^y mice, which are 6-8 weeks with the weight of 28-32 g, and divide them into different groups according to the blood sugar level and body weight: (2) model control group, (3) which is administered by compound S13 with the dose of 1 mg/kg, (4) which is administered by compound S13 with the dose of 5 mg/kg, (5) which is administered by compound S13 with the dose of 10 mg/kg, (6) which is administered by compound S13 with the dose of 20 mg/kg, (7) which is administered by compound S28 with the dose of 1 mg/kg, (8) which is administered by compound S28 with the dose of 5 mg/kg, (9) which is administered by compound S28 with the dose of 10 mg/kg, (10) which is administered by compound S28 with the dose of 20 mg/kg, (11) which is administered by metformin with the dose of 8 g/kg, (12) which is administered by compound S13 with the dose of 2.5 mg/kg and metformin with the dose of 4 g/kg, (13) which is administered by compound S13 with the dose of 5 mg/kg and metformin with the dose of 4 g/kg, (14) which is administered by compound S28 with the dose of 2.5 mg/kg and metformin with the dose of […], (15) which is administered by compound S28 with the dose of 5 mg/kg and metformin with the dose of […]. Each group has 8 mice, and is administrated successively for 3 weeks. Model control group is given with equal amounts of 0.5% CMC-Na.
4) After the last administration, the mice are executed under anesthesia, and blood is taken to be centrifuged at 3000 rpm in 4[…]. Serum total cholesterol, low density lipoprotein and triglyceride TG are detected.

Compound | IC50 (aldose reductase) | IC50 (dipeptidyl peptidase-4) | ALT [1] | HDL-C [1] | LDL-C [1] | SOD [1] | TC [1] | TG [1] | blood sugar (normal mice) | ALT ([2]; 1 mg/kg, groups 3, 7) | AST ([2]; 1 mg/kg, groups 3, 7) | HDL-C ([2]; 1 mg/kg, groups 3, 7) | LDL-C ([2]; 1 mg/kg, groups 3, 7) | SOD ([2]; 1 mg/kg, groups 3, 7) | TC ([2]; 1 mg/kg, groups 3, 7) | TG ([2]; 1 mg/kg, groups 3, 7) | ALT ([2]; 5 mg/kg, groups 4, 8) | AST ([2]; 5 mg/kg, groups 4, 8) | HDL-C ([2]; 5 mg/kg, groups 4, 8) | LDL-C ([2]; 5 mg/kg, groups 4, 8) | further results
CC(C)=CCC/C(C)=C/CCC1=C[C@H](c2cc(O)ccc2O)OC1=O [S13, (R,E)-5-(2,5-dihydroxyphenyl)-3-(4,8-dimethylnona-3,7-dien-1-yl)furan-2(5H)-one] | 1.8 µM | 4.5 µM | 61.3* U/L | 0.99 mmol/L | 0.36** mmol/L | 2.04 U/L | 2.13* mmol/L | 0.44* mmol/L | 4.21 mmol/L | 72.1** U/L | 56.2** U/L | 22.4 mg/dL | 64* mg/dL | 5.01** U/L | 132** mg/dL | 328** mg/dL | 72.8** U/L | 63.5** U/L | 22.4 mg/dL | 64** mg/dL | SOD ([2]; 5 mg/kg, groups 4, 8): 4.24* U/L; TC ([2]; 5 mg/kg, groups 4, 8): 134** mg/dL; TG ([2]; 5 mg/kg, groups 4, 8): 310** mg/dL; ALT ([2]; 10 mg/kg, groups 5, 9): 67.1** U/L; AST ([2]; 10 mg/kg, groups 5, 9): 60.8** U/L; HDL-C ([2]; 10 mg/kg, groups 5, 9): 22.5 mg/dL; LDL-C ([2]; 10 mg/kg, groups 5, 9): 64** mg/dL; SOD ([2]; 10 mg/kg, groups 5, 9): 4.11** U/L; TC ([2]; 10 mg/kg, groups 5, 9): 131** mg/dL; TG ([2]; 10 mg/kg, groups 5, 9): 327** mg/dL; ALT ([2]; 20 mg/kg, groups 6, 10): 61.2** U/L; AST ([2]; 20 mg/kg, groups 6, 10): 60.5** U/L; HDL-C ([2]; 20 mg/kg, groups 6, 10): 22.1 mg/dL; LDL-C ([2]; 20 mg/kg, groups 6, 10): 53** mg/dL; SOD ([2]; 20 mg/kg, groups 6, 10): 4.52** U/L; TC ([2]; 20 mg/kg, groups 6, 10): 125** mg/dL; TG ([2]; 20 mg/kg, groups 6, 10): 310** mg/dL
CC(C)=CCC/C(C)=C/CCC1=C[C@@H](c2cc(O)ccc2O)OC1=O [S28, (S,E)-5-(2,5-dihydroxyphenyl)-3-(4,8-dimethylnona-3,7-dien-1-yl)furan-2(5H)-one] | 1.6 µM | 6.8 µM | 72.1* U/L | 0.97 mmol/L | 0.38** mmol/L | 2.10* U/L | 1.98** mmol/L | 0.45* mmol/L | 4.02 mmol/L | 72.5** U/L | 56.5** U/L | 22.1 mg/dL | 64** mg/dL | 5.12** U/L | 134** mg/dL | 325** mg/dL | 71.2** U/L | 63.6** U/L | 22.3 mg/dL | 69* mg/dL | SOD ([2]; 5 mg/kg, groups 4, 8): 4.25* U/L; TC ([2]; 5 mg/kg, groups 4, 8): 134** mg/dL; TG ([2]; 5 mg/kg, groups 4, 8): 312** mg/dL; ALT ([2]; 10 mg/kg, groups 5, 9): 62.5** U/L; AST ([2]; 10 mg/kg, groups 5, 9): 60.6** U/L; HDL-C ([2]; 10 mg/kg, groups 5, 9): 22.5 mg/dL; LDL-C ([2]; 10 mg/kg, groups 5, 9): 69* mg/dL; SOD ([2]; 10 mg/kg, groups 5, 9): 4.12* U/L; TC ([2]; 10 mg/kg, groups 5, 9): 135** mg/dL; TG ([2]; 10 mg/kg, groups 5, 9): 331** mg/dL; ALT ([2]; 20 mg/kg, groups 6, 10): 61.5** U/L; AST ([2]; 20 mg/kg, groups 6, 10): 60.6** U/L; HDL-C ([2]; 20 mg/kg, groups 6, 10): 22.4 mg/dL; LDL-C ([2]; 20 mg/kg, groups 6, 10): 54** mg/dL; SOD ([2]; 20 mg/kg, groups 6, 10): 4.34* U/L; TC ([2]; 20 mg/kg, groups 6, 10): 123** mg/dL; TG ([2]; 20 mg/kg, groups 6, 10): 312** mg/dL
